Structures are written as SMILES. Read-outs that look alike come from different tables or passages of the source.

Format in all cases: cell-based
One assay addresses T1, mouse PPAR α (Mus musculus, UniProt P23204).
T1 construct: expressed in transfected cells; host or cells: HEK293T
T1 sequence (P23204 239-466 limits assumed): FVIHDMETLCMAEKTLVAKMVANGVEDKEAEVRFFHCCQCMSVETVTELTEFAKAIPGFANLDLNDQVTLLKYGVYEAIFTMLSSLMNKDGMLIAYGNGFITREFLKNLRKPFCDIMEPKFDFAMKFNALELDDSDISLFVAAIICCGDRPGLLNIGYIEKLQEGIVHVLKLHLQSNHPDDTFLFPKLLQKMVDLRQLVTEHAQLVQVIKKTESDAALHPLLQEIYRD
As to the kind of experiment: PPAR α transactivation (GAL4 chimera luciferase gene activation) assay. Particulars: GAL4 DNA binding domain-PPAR α ligand binding domain chimera, pFR-Luc reporter, HEK293T cells, 20 hours incubation; read-out: Gene Activation Assay: EC50 PPAR alpha. The source says:
(§1) Measurement of PPARγ, δ, and α Transactivation Activity
(§2) Chimeric receptors were constructed in which the yeast transcription factor GAL4 DNA binding domain was fused to the ligand binding domain of either mouse PPARγ, mouse PPAR δ or mouse PPAR α in order to assess the ability of the compounds of the present invention to activate gene expression in a PPAR-dependent manner. The chimeric receptor expression plasmids (GAL4-nPPARγ, GAL4-mPPAR δ and GAL4-PPAR α) and the reporter plasmid containing 5×GAL4 binding site (pFR-Luc, obtained from Stratagene) were transfected into HEK293T cells using the Lipofectamine 2000 reagent (Invitrogen), according to the manufacturers instructions. Six hours after transfection, the culture medium was renewed and the cells were incubated for 20 hours in presence of either 1) DMSO (vehicle), 2) a compound of the invention or 3) a reference compound for comparison. Rosiglitazone (obtained from WDF Pharma) was used as a reference compound for the PPARγ assay; GW501516 (prepared as described in Sznaidman et al. Bioorg. Med. Chem. Lett. (2003) 13:1517-1521) was used as a reference compound for the PPAR δ assay and GW7647 (obtained from Sigma) was used as a reference compound for the PPAR α assay. Luciferase activity was measured as a reporter of gene expression. Luciferase activity on the cell lysates using the Steady-Glo reagent was measured according to the manufacturers instructions.

The target of a further assay is T2, mouse PPAR δ (Mus musculus, UniProt P35396).
T2 construct: expressed in transfected cells; host or cells: HEK293T
T2 sequence (P35396 210-438 limits assumed): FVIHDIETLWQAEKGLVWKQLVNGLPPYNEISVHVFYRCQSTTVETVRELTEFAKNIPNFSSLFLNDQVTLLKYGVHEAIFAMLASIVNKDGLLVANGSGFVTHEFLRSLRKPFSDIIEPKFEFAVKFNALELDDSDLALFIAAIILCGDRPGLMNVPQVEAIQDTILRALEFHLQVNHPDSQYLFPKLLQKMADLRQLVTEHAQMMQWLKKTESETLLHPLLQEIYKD
As to the kind of experiment: PPAR δ transactivation (GAL4 chimera luciferase gene activation) assay. The following applies: GAL4 DNA binding domain-PPAR δ ligand binding domain chimera, pFR-Luc reporter, HEK293T cells, 20 hours incubation; read-out: Gene Activation Assay: EC50 PPAR delta.
Description: as §1, §2

The target of the next assay is T3, mouse PPARγ (Mus musculus, UniProt P37238).
T3 construct: expressed in transfected cells; host or cells: HEK293T
T3 sequence (P37238 238-503 limits assumed): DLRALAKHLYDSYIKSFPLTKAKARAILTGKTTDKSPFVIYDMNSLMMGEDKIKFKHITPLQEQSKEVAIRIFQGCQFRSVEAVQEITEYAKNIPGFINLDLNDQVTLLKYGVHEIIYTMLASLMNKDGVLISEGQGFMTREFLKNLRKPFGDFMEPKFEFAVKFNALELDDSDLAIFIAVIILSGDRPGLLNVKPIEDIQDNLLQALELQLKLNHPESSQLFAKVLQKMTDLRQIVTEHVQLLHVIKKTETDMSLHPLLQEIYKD
As to the kind of experiment: PPARγ transactivation (GAL4 chimera luciferase gene activation) assay. The following applies: GAL4 DNA binding domain-PPARγ ligand binding domain chimera, pFR-Luc reporter, HEK293T cells, 20 hours incubation.
Description: as §1, §2

The mark [1] stands for this setting: read-out: Gene Activation Assay: EC50 PPAR gamma.

On to `Cc1cc(SCc2nn(-c3ccc(C(F)(F)F)cc3)nc2C)ccc1OCC(=O)O` [Compound 100, {2-Methyl-4-[5-methyl-2-(4-trifluoromethyl-phenyl)-2H-[1,2,3]triazol-4-ylmethylsulfanyl]-phenoxy}-acetic acid], for which the EC50 on mouse PPAR α was greater than 10 µM; at mouse PPAR δ it was no more than 10 µM; on mouse PPARγ (setting [1]), greater than 30 µM.
With `Cc1cc(SCc2nn(-c3ccc(C(F)(F)F)cc3)nc2C)ccc1OC(C)C(=O)O` (stereo not drawn) [Compound 110, 2-{2-Methyl-4-[5-methyl-2-(4-trifluoromethyl-phenyl)-2H-[1,2,3]triazol-4-ylmethylsulfanyl]-phenoxy}-propionic acid], the EC50 at mouse PPAR α, on mouse PPAR δ and at mouse PPARγ (setting [1]) was no more than 10 µM throughout.
In the case of `Cc1cc(SCc2nn(-c3ccc(C(F)(F)F)cc3)nc2C)ccc1OC(C)(C)C(=O)O` [Compound 210, 2-Methyl-2-{2-methyl-4-[5-methyl-2-(4-trifluoromethyl-phenyl)-2H-[1,2,3]triazol-4-ylmethylsulfanyl]-phenoxy}-propionic acid], the EC50 on mouse PPAR α is no more than 10 µM; at mouse PPAR δ, no more than 10 µM; on mouse PPARγ (read-out: Gene Activation Assay: EC50 PPAR gamma (number printed instead of a symbol)), 10 µM.
In the case of `Cc1cc(SCc2nn(-c3ccc(C(F)(F)F)cc3)nc2C(C)C)ccc1OCC(=O)O` [Compound 320, {4-[5-Isopropyl-2-(4-trifluoromethyl-phenyl)-2H-[1,2,3]triazol-4-ylmethylsulfanyl]-2-methyl-phenoxy}-acetic acid], the EC50 was greater than 10 µM at mouse PPAR α, no more than 10 µM at mouse PPAR δ and greater than 30 µM on mouse PPARγ (setting [1]).
The like results for `Cc1cc(SCc2nn(-c3ccc(C(F)(F)F)cc3)nc2-c2ccccc2)ccc1OCC(=O)O` [Compound 340, {2-Methyl-4-[5-phenyl-2-(4-trifluoromethyl-phenyl)-2H-[1,2,3]triazol-4-ylmethylsulfanyl]-phenoxy}-acetic acid] were, in that order, no more than 10 µM, no more than 10 µM and greater than 30 µM.
The like results for `Cc1cc(SCc2nn(-c3ccc(C(F)(F)F)cc3)nc2C(F)(F)F)ccc1OCC(=O)O` [Compound 360, {2-Methyl-4-[5-trifluoromethyl-2-(4-trifluoromethyl-phenyl)-2H-[1,2,3]triazol-4-ylmethylsulfanyl]-phenoxy}-acetic acid] were, in that order, greater than 10 µM, no more than 10 µM and greater than 30 µM.
The like results for `COc1ccc(-n2nc(C)c(CSc3ccc(OCC(=O)O)c(C)c3)n2)cc1` [Compound 440, {4-[2-(4-Methoxy-phenyl)-5-methyl-2H-[1,2,3]triazol-4-ylmethylsulfanyl]-2-methyl-phenoxy}-acetic acid] were, in that order, greater than 10 µM, no more than 10 µM and greater than 10 µM.
For `Cc1cc(SCc2nn(-c3cccc(C(F)(F)F)c3)nc2C)ccc1OCC(=O)O` [Compound 480, {2-Methyl-4-[5-methyl-2-(3-trifluoromethyl-phenyl)-2H-[1,2,3]triazol-4-ylmethylsulfanyl]-phenoxy}-acetic acid], the EC50 on mouse PPAR α was no more than 10 µM; on mouse PPAR δ it was no more than 10 µM; on mouse PPARγ (setting [1]), greater than 10 µM.
Consider `Cc1cc(SCCc2nn(-c3ccc(C(F)(F)F)cc3)nc2C)ccc1OCC(=O)O` [Compound 580, (2-Methyl-4-{2-[5-methyl-2-(4-trifluoromethyl-phenyl)-2H-[1,2,3]triazol-4-yl]-ethylsulfanyl}-phenoxy)-acetic acid], for which the EC50 on mouse PPAR α was no more than 10 µM; on mouse PPAR δ, no more than 10 µM; at mouse PPARγ (setting [1]), greater than 30 µM.
Consider `Cc1cc(SCc2nn(-c3ccc(Cl)c(Cl)c3)nc2C)ccc1OCC(=O)O` [Compound 640, {4-[2-(3,4-Dichloro-phenyl)-5-methyl-2H-[1,2,3]triazol-4-ylmethylsulfanyl]-2-methyl-phenoxy}-acetic acid], for which the figures for the EC50 on mouse PPAR α, on mouse PPAR δ and on mouse PPARγ (setting [1]) were greater than 10 µM, no more than 10 µM and greater than 30 µM, respectively.
The like results for `CCCc1cc(CC(=O)O)ccc1OCc1nn(-c2ccc(C(F)(F)F)cc2)nc1C` [Compound 660, {3-Propyl-4-[5-methyl-2-(4-trifluoromethyl-phenyl)-2H-[1,2,3]triazol-4-ylmethoxy]-phenyl}-acetic acid] were, in that order, greater than 30 µM, no more than 10 µM and greater than 30 µM.
With `Cc1nn(-c2ccc(C(F)(F)F)cc2)nc1COc1ccc(CC(=O)O)cc1` [Compound 670], the EC50 at mouse PPAR α is greater than 10 µM; on mouse PPAR δ it was no more than 10 µM; at mouse PPARγ (setting [1]), greater than 30 µM.

The record behind these values is US7323480B2, “Substituted triazoles as modulators of PPAR and methods of their preparation” (Metabolex, Inc., priority 2004, dated 2008).
